Assay results reported in US5434292A, “Phenylalkanoic acid derivatives, process for producing the same and process for separating optical isomers thereof” (Hisamitsu Pharmaceutical Co., Inc., priority 1994, dated 1995).
Where two headings read alike, the source gives them in different places.

How the values were obtained:
Assay type in all cases: in vivo, Wistar-strain male rats
adjuvant arthritis = assay: Adjuvant arthritis experiment using rats; settings: oral; for ED50: Rattus norvegicus, 168 h, once a day for 7 days
Protocol: Pharmacological Experiment 4 (Adjuvant arthritis experiment using rats)
0.6 mg/0.1 ml of Mycobacterium butyricum suspended in liquid paraffin were subcutaneously administered to the root of the tall of each of Wistar-strain male rats each weighing about 200 g (for the compound of Example 2 and comparative compound 1) or 240 g (for the compound of Example 24 and comparative compounds 4 and 5). […] The test compounds were orally administered once a day for 7 days to the selected rats in the predetermined doses, respectively, as indicated in the following Table 7. The inhibitory effect on the adjuvant arthritis was investigated referring, as a guide to the investigation, to the inhibition effect on swelling of the hind paws of each of the tested rats. In each of the tested rats, the inhibition rate was calculated by comparing the swelling volume ratio of the tested rat determined by the following formula with that of each rat of the control group (to which no test compounds were orally administered).
Swelling volume ratio = {(paw volume measured
26 days (*a) after the subcutaneous administration) -
(original or normal paw volume)}/{(paw volume
measured 19 days (*b) after the subcutaneous
administration) - (original or normal paw volume)} × 100
*a: 24 days later, for the compound of Example 24 and comparative
*b: 17 days later, for the compound of Example 24 and comparative

[1] = tested on: Carrageenin-induced paw edema; assay: Carrageenin-induced paw edema experiment using rats; settings: Rattus norvegicus, 3 h; for inhibition in vivo at 0.2 mg/kg / inhibition in vivo at 0.5 mg/kg / ED50: oral; for inhibition in vivo at 0.2 mg/kg / inhibition in vivo at 0.5 mg/kg: three hours after induction, vs control; for ED50: edema inhibition three hours after induction
Protocol: Pharmacological Experiment 1 (Carrageenin-induced paw edema experiment using rats)
There were used groups each consisting of seven Wistar-strain male rats each weighing about 150 g as test animals (subjects). One hour later than said administration, 0.1 ml of 1%λ-carrageenin was hypodermically injected to the paw of right hind leg of each of the test animals to induce the reaction. Thereafter, each test animal so injected was measured for its paw volume with the lapse of time.
The experimental results were indicated in terms of edema inhibition rates and effective doses (ED50) found by comparing the edema rate of each test rat with that of each rat of the control group (to which no test compounds were orally administered) three hours after having induced the reaction.

[2] = Gastric mucous membrane trouble experiment using rats; settings: rat, in vivo
Protocol: (§1) Pharmacological Experiment 3 (Gastric mucous membrane trouble experiment using rats)
(§2) There were used groups each consisting of eight Wistar-strain male rats each weighing about 160 g as test animals (subjects). The test compounds were orally administered to the test animals in the predetermined doses, respectively, as indicated in the following Table 6 after their fasting for 18 hours. Thirty five hours later than said administration, the rats so administered were dissected to remove therefrom the stomachs each of which was then fixed, cut along the greater curvature thereof and visually observed to find whether ulcers were formed therein. Further, 50% gastric ulcer-inducing doses (UD50) were determined.

Gastric mucous membrane = assay: as above; settings: oral, 3.0 mg/kg; fasted 18 hours; groups of eight rats
Protocol: as §1, §2

[3] = tested on: threshold of pain of the paws; assay: Randall-Selitto method using rats (yeast-induced inflammatory pain); settings: oral; for ED50: Rattus norvegicus, analgesic effect; for Inhibition rate: area under the curve of pain threshold vs control
Protocol: Pharmacological Experiment 2 (Randall-Selitto method using rats as subjects)
There were used groups each consisting of seven Wistar-strain male rats each weighing about 140 g. The rats were hypodermically injected with 0.1 ml of 20% yeast suspension at the paw of their right hind leg to induce inflammatory edema, and the threshold of pain of the paws was measured with the lapse of time in accordance with the Randall-Selitto method. Three hours after the reaction had been induced, the dose of the test compounds was orally administered to each rat as shown in the following Table 5.
In Table 5, the results were expressed in terms of inhibition rates and effective amounts (ED50) for the tested groups with respect to those of the control group (to which the compound was not orally administered) after the area under the curve had been measured subsequently to the administration.

[4] = 1.0 mg/kg once a day for 7 days
[5] = read-out: Inhibition rate (edema inhibition rate)

SMILES: CC(C(=O)O)c1ccc(C[C@@H]2CCCC[C@H]2O)c(Cl)c1 (relative stereo) [Example 24, 2-[3-chloro-4-(trans-2-hydroxycyclohexane-1-ylmethyl)phenyl]propionic acid]
- Inhibition rate (swelling of hind paws) (adjuvant arthritis; 0.1 mg/kg once a day for 7 days): 34.2%
- Inhibition rate (swelling of hind paws) (adjuvant arthritis; 0.3 mg/kg once a day for 7 days): 49.9%
- Inhibition rate (swelling of hind paws) (adjuvant arthritis; [4]): 65.9%
- inhibition in vivo at 0.2 mg/kg [1, 5]: 33.4%
- inhibition in vivo at 0.5 mg/kg [1, 5]: 47.1%

SMILES: CC(C(=O)O)c1ccc(C[C@H]2CCCC[C@@H]2O)c(F)c1 (relative stereo) [Example 31]
- inhibition in vivo at 0.5 mg/kg [1, 5]: 54%

SMILES: CC(C(=O)O)c1ccc(C[C@H]2CCCC[C@H]2O)c(F)c1 (relative stereo) [Example 32]
- inhibition in vivo at 0.5 mg/kg [1, 5]: 37.9%

SMILES: CC(C(=O)O)c1ccc(C[C@@H]2CCC[C@H]2O)c(Cl)c1 (relative stereo) [Example 40, 2-[3-chloro-4-(trans-2-hydroxycyclopentane-1-ylmethyl)phenyl] propionic acid]
- inhibition in vivo at 0.2 mg/kg [1, 5]: 34.5%
- inhibition in vivo at 0.5 mg/kg [1, 5]: 56.3%

SMILES: CC(C(=O)O)c1ccc(C[C@H]2CCC[C@@H]2O)c(F)c1 (relative stereo) [Example 46]
- inhibition in vivo at 0.5 mg/kg [1, 5]: 60.5%

SMILES: CC(C(=O)O)c1ccc(C[C@H]2CCC[C@H]2O)c(F)c1 (relative stereo) [Example 47]
- inhibition in vivo at 0.5 mg/kg [1, 5]: 45.6%

SMILES: CC(C(=O)O)c1ccc(C[C@@H]2CCCC[C@H]2O)cc1 (relative stereo) [compound 5, 2[4-(trans-2-hydroxycyclohexane-1-ylmethyl)phenyl]propionic acid, reference compound]
- Inhibition rate (swelling of hind paws) (adjuvant arthritis; 3.0 mg/kg once a day for 7 days): 42.7%
- Inhibition rate (swelling of hind paws) (adjuvant arthritis; 10.0 mg/kg once a day for 7 days): 56.4%
- inhibition in vivo at 0.5 mg/kg [1, 5]: 33.7%

SMILES: CC(C(=O)O)c1ccc(C[C@@H]2CCC[C@H]2O)cc1 (relative stereo) [compound 6, 2[4-(trans-2-hydroxycyclopentane-1-ylmethyl)phenyl]propionic acid, reference compound]
- inhibition in vivo at 0.2 mg/kg [1, 5]: 22.5%
- inhibition in vivo at 0.5 mg/kg [1, 5]: 38.5%

SMILES: CC(C(=O)O)c1ccc(CC2CCCCC2=O)c(Cl)c1 (stereo not drawn) [Example 2, 2-[3-chloro-4-(2-oxocyclohexane-1-ylmethyl)phenyl]propionic acid]
- TD50 at 35 h ([2]; po): 5.6 mg/kg
- Ulcer formation (incidence) (Gastric mucous membrane): 2/8
- ED50 (adjuvant arthritis): 0.5 mg/kg
- Inhibition rate (swelling of hind paws) (adjuvant arthritis; [4]): 62.1%
- ED50 [3]: 0.3 mg/kg
- Inhibition rate ([3]; 0.3 mg/kg): 54.3%
- Inhibition rate ([3]; 1.0 mg/kg): 75.1%
- inhibition in vivo at 0.2 mg/kg [1, 5]: 21.8%
- inhibition in vivo at 0.5 mg/kg [1, 5]: 49.5%
- ED50 [1]: 0.6 mg/kg

SMILES: CC(C(=O)O)c1ccc(CC2CCCC2=O)c(Cl)c1 (stereo not drawn) [Example 3, 2-[3-chloro-4-(2-oxocyclopentane-1-ylmethyl)phenyl]propionic acid]
- Inhibition rate ([3]; 0.3 mg/kg): 44.7%
- Inhibition rate ([3]; 1.0 mg/kg): 69.3%
- inhibition in vivo at 0.2 mg/kg [1, 5]: 20.2%
- inhibition in vivo at 0.5 mg/kg [1, 5]: 48.5%

SMILES: CC(C(=O)O)c1ccc(CC2CCCC2=O)c(F)c1 (stereo not drawn) [Example 6]
- Ulcer formation (incidence) (Gastric mucous membrane): 1/8
- inhibition in vivo at 0.5 mg/kg [1, 5]: 52.2%

SMILES: CC(C(=O)O)c1ccc(CC2CCCCC2=O)c(F)c1 (stereo not drawn) [Example 10]
- inhibition in vivo at 0.5 mg/kg [1, 5]: 50.2%

SMILES: CC(C(=O)O)c1ccc(C[C@H]2CCCC[C@@H]2O)c(Cl)c1 (stereo partly drawn) [Example 28, 2-[3-chloro-4-(trans-(1R, 2S)-2-hydroxycyclohexane-1-yl-methyl)phenyl]propionic acid]
- Inhibition rate ([3]; 0.3 mg/kg): 62.5%
- Inhibition rate ([3]; 1.0 mg/kg): 80.9%
- inhibition in vivo at 0.2 mg/kg [1, 5]: 38.3%
- inhibition in vivo at 0.5 mg/kg [1, 5]: 54.8%

SMILES: CC(C(=O)O)c1ccc(C[C@H]2CCC[C@@H]2O)c(Cl)c1 (stereo partly drawn) [Example 44, 2-[3-chloro-4-(trans-(1R, 2S)-2-hydroxycyclopentane-1-ylmethyl)phenyl]propionic acid]
- inhibition in vivo at 0.2 mg/kg [1, 5]: 42.2%
- inhibition in vivo at 0.5 mg/kg [1, 5]: 65.5%

SMILES: CC(C(=O)O)c1ccc(CC2CCCC2=O)cc1 (stereo not drawn) [compound 1, Loxoprofen, reference compound]
- TD50 at 35 h ([2]; oral, fasted 18 hours, read-out: UD50 (50% gastric ulcer-inducing dose)): 4.7 mg/kg
- Ulcer formation (incidence) (Gastric mucous membrane): 4/8
- ED50 (adjuvant arthritis): 8.1 mg/kg
- Inhibition rate (swelling of hind paws) (adjuvant arthritis; [4]): 1.3%
- ED50 [3]: 1.5 mg/kg
- Inhibition rate ([3]; 1.0 mg/kg): 49.7%
- inhibition in vivo at 0.5 mg/kg [1, 5]: 23.9%
- ED50 [1]: 1.5 mg/kg

SMILES: CC(C(=O)O)c1ccc(CC2CCCCC2=O)cc1 (stereo not drawn) [compound 2, 2[4-(2-oxocyclohexane-1-ylmethyl)phenyl]propionic acid, reference compound]
- Inhibition rate ([3]; 1.0 mg/kg): 44.3%
- inhibition in vivo at 0.5 mg/kg [1, 5]: 27.1%

SMILES: CC(C(=O)O)c1ccc(CC2CCCC2)c(Cl)c1 (stereo not drawn) [compound 3, 2(3-chloro-4-cyclopentylmethylphenyl)propionic acid, reference compound]
- Inhibition rate ([3]; 1.0 mg/kg): 18.4%
- inhibition in vivo at 0.5 mg/kg [1, 5]: 10.2%

SMILES: COc1ccc2c(c1)c(CC(=O)O)c(C)n2C(=O)c1ccc(Cl)cc1 [compound 4, Indomethacin, reference compound]
- Inhibition rate (swelling of hind paws) (adjuvant arthritis; [4]): 58.7%
- Inhibition rate ([3]; 5.0 mg/kg): 76.3%
- inhibition in vivo at 5 mg/kg ([1]; po, read-out: Inhibition rate (edema inhibition rate)): 51.3%
